This note sets out measurements from patent US20110136792A1, “NOVEL CARBOXYLIC ACID ANALOGS AS GLYCOGEN SYNTHASE ACTIVATORS” (priority 2009, published 2011).

pEC50: −log10 of the molar value.

The subject of this assay is glycogen synthase. Put plainly: Glycogen Synthase (GS) Assay. The following applies: coupled pyruvate kinase/lactate dehydrogenase assay, absorbance at 340 nm; for pEC50: compound concentration needed to give 50% maximum activation; for GS SC200: compound concentration needed to stimulate 200% of the enzyme activity. Format: biochemical. The protocol: The following tests were carried out in order to determine the activity of the compounds of formula (I).
Twelve μL per well of substrate solution containing glycogen (4.32 mg/ml), 2.67 mM UDP-glucose, 21.6 mM phospho(enol)pyruvate and 2.7 mM NADH in 30 mM glycylglycine, pH 7.3 buffer was added into a polystyrene 384-well assay plate (BD Biosciences).
Compound solutions (8 μL/well) at various concentrations (0-300 μM) were added to the assay plate (columns 5-24). Compound solution contains 30 mM glycylglycine, pH 7.3, 40 mM KCl, 20 mM MgCl2, 9.2% DMSO, with (columns 15-24) or without (columns 5-14) 20 mM glucose 6-phosphate.
Enzyme solution (12 μL/well) containing glycogen synthase (16.88 μg/ml), pyruvate kinase (0.27 mg/ml), lactate dehydrogenase (0.27 mg/ml) in 50 mM Tris-HCl, pH 8.0, 27 mM DTT and bovine serum albumin (BSA, 0.2 mg/ml) was added to the assay plate (columns 3-24). As a blank control, enzyme solution without glycogen synthase was added into the top half wells of columns 1-2. To the bottom half wells of columns 1-2 were added a known activator, glucose 6-phosphate (at final concentration 5 mM) in addition to the enzyme solution. The reaction mixture was incubated at room temperature. The assay plate was then read for absorbance at 340 nm on an Envision reader every 3 minutes up to a total of 15 minutes.
The enzyme activity (with or without compound) was calculated by the reaction rate and represented by the optical density change (δOD) per minute. Percent stimulation of glycogen synthase activity by a compound at various concentrations was calculated by the following formula: […]
Where Rs is the reaction rate of the enzyme in the presence of compound and Rt is the reaction rate of the enzyme in the absence of compound.
SC200 is defined as the compound concentration that is needed to stimulate 200% of the enzyme activity. EC50 is defined as the compound concentration that is needed to give 50% maximum activation.
Compounds from Examples 1 through Example 64 were assayed according to assay procedures described above and the result is listed in Table 1 below: […]

`COc1cc(F)c(F)cc1-c1ccc(OCc2cccc(CN(CC(=O)O)C(=O)C3CC3)c2)cc1` [Example 22, {Cyclopropanecarbonyl-[3-(4′,5′-difluoro-2′-methoxy-biphenyl-4-yloxymethyl)-benzyl]-amino}-acetic acid]: the pEC50 is 6.59 and the “GS SC200” value came out at 0.03 µM.

For `CCC(=O)N(CC(=O)O)Cc1cccc(COc2ccc(-c3cc(F)c(F)cc3OC)cc2)c1` [Example 23, {[3-(4′,5′-Difluoro-2′-methoxy-biphenyl-4-yloxymethyl)-benzyl]-propionyl-amino}-acetic acid], the pEC50 is 6.43 and the “GS SC200” value was 0.10 µM.

Turning to `COc1cc(F)c(F)cc1-c1ccc(OCc2cccc(CN(CC(=O)O)C(=O)CC3CC3)c2)cc1` [Example 24, {(2-Cyclopropyl-acetyl)-[3-(4′,5′-difluoro-2′-methoxy-biphenyl-4-yloxymethyl)-benzyl]-amino}-acetic acid], the pEC50 was 6.14 and the “GS SC200” value amounted to 0.12 µM.

For `COc1cc(F)c(F)cc1-c1ccc(OCc2cccc(CN(CC(=O)O)C(=O)[C@@H]3CCCO3)c2)cc1` [Example 25, [[3-(4′,5′-Difluoro-2′-methoxy-biphenyl-4-yloxymethyl)-benzyl]-((S)-tetrahydro-furan-2-carbonyl)-amino]-acetic acid], the pEC50 was 6.39 and the “GS SC200” value was found to be 0.07 µM.

On to `COCCC(=O)N(CC(=O)O)Cc1cccc(COc2ccc(-c3cc(F)c(F)cc3OC)cc2)c1` [Example 26, [[3-(4′,5′-Difluoro-2′-methoxy-biphenyl-4-yloxymethyl)-benzyl]-(3-methoxy-propionyl)-amino]-acetic acid], for which the negative-log EC50 (pEC50) was 6.35 and the “GS SC200” value amounted to 0.05 µM.

Take `COc1cc(F)c(F)cc1-c1ccc(OCc2cccc(CN(CC(=O)O)C(=O)c3cscn3)c2)cc1` [Example 27, [[3-(4′,5′-Difluoro-2′-methoxy-biphenyl-4-yloxymethyl)-benzyl]-(thiazole-4-carbonyl)-amino]-acetic acid]: the pEC50 is 6.28 and the “GS SC200” value was found to be 0.08 µM.

Regarding `COCC(=O)N(CC(=O)O)Cc1cccc(COc2ccc(-c3cc(F)c(F)cc3OC)cc2)c1` [Example 28, [[3-(4′,5′-Difluoro-2′-methoxy-biphenyl-4-yloxymethyl)-benzyl]-(2-methoxy-acetyl)-amino]-acetic acid], the pEC50 is 6.39 and the “GS SC200” value is 0.06 µM.

Consider `COc1cc(F)c(F)cc1-c1ccc(OCc2cccc(CN(CC(=O)O)C(=O)c3cn(C)cn3)c2)cc1` [Example 29, [[3-(4′,5′-Difluoro-2′-methoxy-biphenyl-4-yloxymethyl)-benzyl]-(1-methyl-1H-imidazole-4-carbonyl)-amino]-acetic acid], for which the pEC50 was 6.47 and the “GS SC200” value amounted to 0.01 µM.

For `COc1cc(F)c(F)cc1-c1ccc(OCc2cccc(CN(CC(=O)O)C(=O)c3cccnc3)c2)cc1` [Example 30, [[3-(4′,5′-difluoro-2′-methoxy-biphenyl-4-yloxymethyl)-benzyl]-(pyridine-3-carbonyl)-amino]-acetic acid], the pEC50 was 6.33 and the “GS SC200” value turned out to be 0.04 µM.

Take `COCC(C)C(=O)N(CC(=O)O)Cc1cccc(COc2ccc(-c3cc(F)c(F)cc3OC)cc2)c1` (stereo not drawn) [Example 31]: the pEC50 was 6.32 and the “GS SC200” value turned out to be 0.07 µM.

Consider `COc1cc(F)c(F)cc1-c1ccc(OCc2cccc(CN(CC(=O)O)C(=O)C3CCN(C)CC3)c2)cc1` [Example 32, [[3-(4′,5′-Difluoro-2′-methoxy-biphenyl-4-yloxymethyl)-benzyl]-(1-methyl-piperidine-4-carbonyl)-amino]-acetic acid], for which the negative logarithm of the EC50 (pEC50) was 6.21 and the “GS SC200” value was 0.07 µM.

Consider `COc1cc(F)c(F)cc1-c1ccc(OCc2cccc(CN(CC(=O)O)C(=O)[C@H]3CCCO3)c2)cc1` [Example 33, [[3-(4′,5′-Difluoro-2′-methoxy-biphenyl-4-yloxymethyl)-benzyl]-((R)-tetrahydro-furan-2-carbonyl)-amino]-acetic acid], for which the pEC50 is 6.46 and the “GS SC200” value was found to be 0.02 µM.

Regarding `COc1cc(F)c(F)cc1-c1ccc(OCc2cccc(CN(CC(=O)O)C(=O)C3CCOC3)c2)cc1` (stereo not drawn) [Example 34, [[3-(4′,5′-Difluoro-2′-methoxy-biphenyl-4-yloxymethyl)-benzyl]-(tetrahydro-furan-3-carbonyl)-amino]-acetic acid], the pEC50 was 6.55 and the “GS SC200” value was 0.04 µM.

`COc1cc(F)c(F)cc1-c1ccc(OCc2cccc(CN(CC(=O)O)Cc3ccccc3)c2)cc1` [Example 35, {Benzyl-[3-(4′,5′-difluoro-2′-methoxy-biphenyl-4-yloxymethyl)-benzyl]-amino}-acetic acid]: the pEC50 was 5.84 and the “GS SC200” value worked out at 0.46 µM.

`CCN(CC(=O)O)Cc1cccc(COc2ccc(-c3cc(F)c(F)cc3OC)cc2)c1` [Example 36, {[3-(4′,5′-Difluoro-2′-methoxy-biphenyl-4-yloxymethyl)-benzyl]-ethyl-amino}-acetic acid]: the pEC50 was 5.71 and the “GS SC200” value amounted to 0.50 µM.

As to `COc1cc(F)c(F)cc1-c1ccc(OCc2cccc(CNCC(=O)O)c2)cc1.Cl` [Example 37, [3-(4′,5′-Difluoro-2′-methoxy-biphenyl-4-yloxymethyl)-benzylamino]-acetic acid], the pEC50 is 5.31 and the “GS SC200” value was 0.38 µM.

`O=C(O)C1CCS(=O)(=O)N1Cc1ccc(F)c(COc2ccc(-c3ccc(F)cc3F)cc2)c1` (stereo not drawn) [Example 41, 2-[3-(2′,4′-Difluoro-biphenyl-4-yloxymethyl)-4-fluoro-benzyl]-1,1-dioxo-1lambda*6*-isothiazolidine-3-carboxylic acid]: the pEC50 was 6.82 and the “GS SC200” value is 0.07 µM.

On to `O=C(O)C1CCS(=O)(=O)N1Cc1cc(COc2ccc(-c3ccc(F)cc3F)cc2)ccc1F` (stereo not drawn) [Example 42, 2-[5-(2′,4′-Difluoro-biphenyl-4-yloxymethyl)-2-fluoro-benzyl]-1,1-dioxo-1lambda*6*-isothiazolidine-3-carboxylic acid], for which the pEC50 was 6.74 and the “GS SC200” value was 0.06 µM.

Turning to `COc1cc(F)c(F)cc1-c1ccc(OCc2cccc(CN3[C@@H](C(=O)O)CCS3(=O)=O)c2)cc1` [Example 44, (R)-2-[3-(4′,5′-Difluoro-2′-methoxy-biphenyl-4-yloxymethyl)-benzyl]-1,1-dioxo-1lambda*6*-isothiazolidine-3-carboxylic acid], the pEC50 was 6.42 and the “GS SC200” value came to 0.09 µM.

With `COc1cc(F)c(F)cc1-c1ccc(OCc2cccc(CN3[C@H](C(=O)O)CCS3(=O)=O)c2)cc1` [Example 45, (S)-2-[3-(4′,5′-Difluoro-2′-methoxy-biphenyl-4-yloxymethyl)-benzyl]-1,1-dioxo-1lambda*6*-isothiazolidine-3-carboxylic acid], the pEC50 was 6.92 and the “GS SC200” value came to 0.02 µM.

Regarding `O=C(O)[C@@H]1CCS(=O)(=O)N1Cc1cccc(COc2ccc(-c3cc(F)c(F)cc3F)cc2)c1` [Example 46, (S)-1,1-Dioxo-2-[3-(2′,4′,5′-trifluoro-biphenyl-4-yloxymethyl)-benzyl]-1lambda*6*-isothiazolidine-3-carboxylic acid], the pEC50 was 7.05 and the “GS SC200” value is 0.01 µM.
